From ChEMBL document CHEMBL3045223, “Synthesis, nematicidal and antimicrobial properties of Bis-[4-methoxy-3-[3-(4-fluorophenyl)-6-(4-methylphenyl)-2(aryl)-tetrahydro-2H-pyrazolo[3,4-d]thiazol-5-yl]phenyl]methanes” (2009)
Values after ≈ are worked out from the molar mass of the structure shown.

Columns and labels:
Type in all cases: functional
[1] = test system: Pseudomonas aeruginosa; assay: Antibacterial activity against Pseudomonas aeruginosa MTCC 741 assessed as growth arrest at 37 degC for 24 hr; details: MTCC 741, 24 h
[2] = test system: Staphylococcus aureus; assay: Antibacterial activity against Staphylococcus aureus MTCC 96 assessed as inhibition zones at 100 ug/disc at 37 degC for 24 hr; details: MTCC 96, 24 h, read-out: IZ
[3] = test system: Lysinibacillus sphaericus; assay: Antibacterial activity against Lysinibacillus sphaericus MTCC 11 assessed as inhibition zones at 100 ug/disk at 37 degC for 24 hr; details: MTCC 11, 24 h, read-out: IZ
[4] = test system: Bacillus subtilis; assay: Antibacterial activity against Bacillus subtilis MTCC 441 assessed as growth arrest at 37 degC for 24 hr; details: MTCC 441, 24 h
[5] = test system: Chromobacterium violaceum; assay: Antibacterial activity against Chromobacterium violaceum MTCC 2656 assessed as inhibition zones at 100 ug/disk at 37 degC for 24 hr; details: MTCC 2656, 24 h, read-out: IZ
[6] = test system: Staphylococcus aureus; assay: Antibacterial activity against Staphylococcus aureus MTCC 96 assessed as growth arrest at 37 degC for 24 hr; details: MTCC 96, 24 h
[7] = test system: Pseudomonas aeruginosa; assay: Antibacterial activity against Pseudomonas aeruginosa MTCC 741 assessed as inhibition zones at 100 ug/disk at 37 degC for 24 hr; details: MTCC 741, 24 h, read-out: IZ
[8] = test system: Klebsiella aerogenes; assay: Antibacterial activity against Enterobacter aerogenes MTCC 39 assessed as growth arrest at 37 degC for 24 hr; details: MTCC 39, 24 h
[9] = test system: Lysinibacillus sphaericus; assay: Antibacterial activity against Lysinibacillus sphaericus MTCC 11 assessed as growth arrest at 37 degC for 24 hr; details: MTCC 11, 24 h
[10] = test system: Chromobacterium violaceum; assay: Antibacterial activity against Chromobacterium violaceum MTCC 2656 assessed as growth arrest at 37 degC for 24 hr; details: MTCC 2656, 24 h
[11] = test system: Klebsiella aerogenes; assay: Antibacterial activity against Enterobacter aerogenes MTCC 39 assessed as inhibition zones at 100 ug/disk at 37 degC for 24 hr; details: MTCC 39, 24 h, read-out: IZ
[12] = test system: Bacillus subtilis; assay: Antibacterial activity against Bacillus subtilis MTCC 441 assessed as inhibition zones at 100 ug/disk at 37 degC for 24 hr; details: MTCC 441, 24 h, read-out: IZ
[13] = test system: Aspergillus fumigatus; assay: Antifungal activity against Aspergillus fumigatus HIC 6094 assessed as growth inhibition at 37 degC for 48 hr; details: HIC 6094, 48 h
[14] = test system: Trichophyton rubrum; assay: Antifungal activity against Trichophyton rubrum IFO 9185 assessed as growth inhibition at 37 degC for 48 hr; details: IFO 9185, 48 h
[15] = test system: Trichophyton mentagrophytes; assay: Antifungal activity against Trichophyton mentagrophytes IFO 40996 assessed as growth inhibition at 37 degC for 48 hr; details: IFO 40996, 48 h
[16] = test system: Aspergillus fumigatus; assay: Antifungal activity against Aspergillus fumigatus HIC 6094 assessed as growth inhibition at 100 ug/disc at 37 degC for 48 hr; details: HIC 6094, 48 h, read-out: IZ
[17] = test system: Trichophyton rubrum; assay: Antifungal activity against Trichophyton rubrum IFO 9185 assessed as growth inhibition at 100 ug/disk at 37 degC for 48 hr; details: IFO 9185, 48 h, read-out: IZ
[18] = test system: Candida albicans; assay: Antifungal activity against Candida albicans ATCC 10231 assessed as growth inhibition at 100 ug/disk at 37 degC for 48 hr; details: ATCC 10231, 48 h, read-out: IZ
[19] = test system: Trichophyton mentagrophytes; assay: Antifungal activity against Trichophyton mentagrophytes IFO 40996 assessed as growth inhibition at 100 ug/disc at 37 degC for 48 hr; details: IFO 40996, 48 h, read-out: IZ
[20] = test system: Candida albicans; assay: Antifungal activity against Candida albicans ATCC 10231 assessed as growth inhibition at 37 degC for 48 hr; details: ATCC 10231, 48 h

CC1(C)S[C@@H]2[C@H](NC(=O)Cc3ccccc3)C(=O)N2[C@H]1C(=O)O [PENICILLIN G]
MBC [1]: 12.5 µg/mL (≈ 37.4 µM) | MIC [1]: 6.25 µg/mL (≈ 18.7 µM) | zone of inhibition at 100 µg/disc [2]: 40 mm | zone of inhibition at 100 µg/disc [3]: 28 mm | MBC [4]: 6.25 µg/mL (≈ 18.7 µM) | MIC [4]: 1.56 µg/mL (≈ 4.67 µM) | zone of inhibition at 100 µg/disc [5]: 25 mm | MBC [6]: 6.25 µg/mL (≈ 18.7 µM) | MIC [6]: 1.56 µg/mL (≈ 4.67 µM) | zone of inhibition at 100 µg/disc [7]: 25 mm | MBC [8]: 12.5 µg/mL (≈ 37.4 µM) | MIC [8]: 6.25 µg/mL (≈ 18.7 µM) | MBC [9]: 25 µg/mL (≈ 74.8 µM) | MIC [9]: 3.12 µg/mL (≈ 9.33 µM) | MBC [10]: 12.5 µg/mL (≈ 37.4 µM) | MIC [10]: 12.5 µg/mL (≈ 37.4 µM) | zone of inhibition at 100 µg/disc [11]: 30 mm | zone of inhibition at 100 µg/disc [12]: 25 mm

C[C@@H]1[C@H](O)[C@@H](C)/C=C/C=C/C=C/C=C/C=C/C=C/C=C/[C@H](O[C@@H]2O[C@H](C)[C@@H](O)[C@H](N)[C@@H]2O)C[C@@H]2O[C@](O)(C[C@@H](O)C[C@@H](O)[C@H](O)CC[C@@H](O)C[C@@H](O)CC(=O)O[C@H]1C)C[C@H](O)[C@H]2C(=O)O [AMPHOTERICIN B]
MBC [13]: 6.25 µg/mL (≈ 6.76 µM) | MIC [13]: 3.12 µg/mL (≈ 3.38 µM) | MBC [14]: 12.5 µg/mL (≈ 13.5 µM) | MIC [14]: 3.12 µg/mL (≈ 3.38 µM) | MBC [15]: 12.5 µg/mL (≈ 13.5 µM) | MIC [15]: 3.12 µg/mL (≈ 3.38 µM) | zone of inhibition at 100 µg/disc [16]: 20 mm | zone of inhibition at 100 µg/disc [17]: 20 mm | zone of inhibition at 100 µg/disc [18]: 25 mm | zone of inhibition at 100 µg/disc [19]: 18 mm | MBC [20]: 12.5 µg/mL (≈ 13.5 µM) | MIC [20]: 6.25 µg/mL (≈ 6.76 µM)
